Results from publication PMC6309945 (The FEBS journal, 2018).
Non-standard residues stand in square brackets, D forms with d. Residues, ends and D or L forms follow the SMILES beside them. *: point of attachment. Sta = CC(C)C[C@H](N)[C@@H](O)CC(=O)O; Isovaleryl = CC(C)CC(=O)*

Assays:
[1] = tested on: human foreskin fibroblasts (HFF); assay: MTT cytotoxicity assay; assay type: cell-based
[2] = target: plasmepsin II (PMII) (Plasmodium falciparum, UniProt P46925); assay: Fluorogenic substrate inhibition assay of mature soluble recombinant PMII; assay type: biochemical
Sequence of plasmepsin II (PMII) (P46925 125-453): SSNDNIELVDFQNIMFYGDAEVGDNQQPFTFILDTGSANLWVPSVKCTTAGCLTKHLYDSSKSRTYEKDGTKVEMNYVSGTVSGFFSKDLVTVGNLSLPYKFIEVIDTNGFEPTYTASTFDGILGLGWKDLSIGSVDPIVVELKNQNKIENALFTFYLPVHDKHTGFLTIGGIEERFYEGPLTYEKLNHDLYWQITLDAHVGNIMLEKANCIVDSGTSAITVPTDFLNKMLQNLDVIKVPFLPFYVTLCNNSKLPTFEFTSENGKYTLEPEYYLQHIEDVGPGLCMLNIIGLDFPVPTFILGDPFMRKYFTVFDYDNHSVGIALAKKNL

Structure (SMILES) | Cytotoxicity (cell viability, MTT) ([1]; highest concentration tested 25 µM, continuous exposure for 2 consecutive days) | Morphology of cells ([1]; light microscopy, compared to cisplatin-treated cells) | Ki [2] [nM]
Cc1cc(N(C)CCN(C)C)cc(C)c1OCC(=O)N[C@@H](Cc1ccccc1)[C@H](O)C(=O)N1CSC(C)(C)[C@H]1C(=O)N[C@H]1c2ccccc2C[C@H]1O [KNI-10743] | no significant cytotoxicity | remains intact | –
CC(C)CC(=O)N[C@H](C(=O)N[C@H](C(=O)N[C@@H](CC(C)C)[C@@H](O)CC(=O)N[C@@H](C)C(=O)N[C@@H](CC(C)C)[C@@H](O)CC(=O)O)C(C)C)C(C)C [Pepstatin A] (Isovaleryl-VV[Sta]A[Sta]-OH) | – | – | 0.07
